Measured values as given in patent US11439707B2, “Hypocrellin derivative substituted both in a peri-position and in 2-position by amino, preparation method, and application thereof” (priority 2017, dated 2022).
“Also recorded” adds a separate entry of the source.

Experiments:
Hela cells [1] = assay: photo-cytotoxicity experiment (MTT, 635 nm laser); assay type: cell-based; conditions: 140 nM, 635 nm light, FIG. 13(b)
Procedure: Photo-cytotoxicity experiment on cell: cultured Hela cells were digested and pipetted with 0.25% trypsin and to prepare a single-cell suspension, the number of cells was adjusted to about 2×10^4 per milliliter, and 200 uL of the suspension was seeded in a well of a 96-well culture plate, which is placed in a 37° C. incubator containing 5% CO2 for cultivation. After the cells adhere to the wall, a supernatant culture solution was discarded, and photosensitizers of different concentrations, that is, the hematoporphyrin derivative HpD, the hypocrellin B HB, or HB-1c-PEG6 synthesized in example 3, were added in a strictly lucifugous condition in accordance with experimental designs, and the culture plate was placed in the 37° C. incubator containing 5% CO2 for further cultivation and incubation for 1 hour. Then, a semiconductor laser with a wavelength of 635 nm was used for irradiation, a power density was adjusted to 20 mW/cm^2, light beams were evenly and vertically applied onto the 96-well culture plate, and an irradiation time was 1000 S. In addition, each 96-well culture plate is provided with a blank group, and 6 holes were provided for in each condition. After irradiation, the culture plate was placed in the 37° C. incubator containing 5% CO2 for further cultivation and incubation for 24 hours, and then a cellular survival rate was measured. The cellular survival rate was measured by means of the MTT method. 20 uL of MTT was added to each well, wherein the MTT is MTT prepared with PBS and having a concentration of 5 mg/ml. The culture plate was placed in the 37° C. incubator containing 5% CO2 for further cultivation for 4 hours, after which the cultivation was terminated. A supernatant in the well was extracted and discarded carefully. Then, 150 uL of dimethyl sulfoxide (DMSO) was added to each well, and the culture plate was shaken by using a micro shaker for 10 minutes to fully dissolve a purple crystal substance. A wavelength of 570 nm was selected to measure an optical density value (i.e., OD value) of each well on a microplate reader, and the cellular survival rate was calculated in accordance with the following formula: cellular survival rate=OD value of an experimental group/OD value of a blank group×100%.

[2] = singlet oxygen efficiency test, reference rose bengal; assay type: physicochemical
[3] = water solubility in normal saline; assay type: physicochemical; conditions: per milliliter of normal saline
Procedure: Most of photosensitizer molecules disclosed in this patent contain a large number of hydrophilic groups, such as a polyethylene glycol chain, a quaternary ammonium salt, a carboxyl group, and a sulfonic acid group, etc., making the photosensitizer molecules have very high water solubility in a physiological condition; and experiments indicate that each milliliter of normal saline or glucose injection can dissolve more than 5 mg of such the photosensitizer molecules, presenting excellent water solubility. Therefore, the photosensitive drug can be well transported in blood vessels during intravenous injection, without causing a vascular blockage. HB-1c-C2-N+ prepared in example 4 contains two quaternary ammonium salts, and each milliliter of normal saline can dissolve more than 20 mg of photosensitizer molecules; HC-1c-PEG6 prepared in example 6 contains two 6-PEG chains, and each milliliter of normal saline can dissolve more than 20 mg of photosensitizer molecules; HB-8c prepared in example 19 contains two carboxyl groups, and each milliliter of normal saline can dissolve more than 10 mg of photosensitizer molecules; HB-13c prepared in example 35 contains two carboxyl groups, and each milliliter of normal saline can dissolve more than 10 mg of photosensitizer molecules; and HB-13c-PEG8 prepared in example 37 contains two 8-PEG chains, and each milliliter of normal saline can dissolve more than 20 mg of photosensitizer molecules. These photosensitizer molecules all present excellent water solubility.

[4] = absorption spectrum (maximum absorption wavelength, molar extinction coefficient); assay type: physicochemical
[5] = pH stability of absorption spectrum; assay type: physicochemical; conditions: pH range of 6.2-8.0, FIG. 8
Excerpt: Therefore, the hypocrellin derivative prepared in the present invention has a better pH stability than the commercial hematoporphyrin HpD in the pH range of 6.2-8.0.

singlet oxygen in a cell = assay: detection of singlet oxygen in a cell with fluorescence probe DCFH-DA; assay type: cell-based; conditions: co-incubation with DCFH-DA, irradiation time to 60 s, FIG. 11
Excerpt: DCFH-DA is used to detect singlet oxygen in a cell.

Hela cells [6] = assay: dark cytotoxicity experiment (MTT); conditions: dark
Procedure: Dark cytotoxicity experiment: cultured Hela cells were digested with 0.25% trypsin and pipetted to prepare a single-cell suspension, the number of cells was adjusted to about 2×10^4 per milliliter, and 200 uL of the suspension was seeded in a well of a 96-well culture plate, which is placed in a 37° C. incubator containing 5% CO2 for cultivation. […] A cellular survival rate was measured by means of the MTT method. 20 uL of MTT was added to each well, wherein the MTT is MTT prepared with PBS and having a concentration of 5 mg/ml. The culture plate was placed in the 37° C. incubator containing 5% CO2 for further cultivation for 4 hours, after which the cultivation was terminated. A supernatant in the well was extracted and discarded carefully. Then, 150 uL of dimethyl sulfoxide was added to each well, and the culture plate was shaken by using a micro shaker for 10 minutes to fully dissolve a purple crystal substance. A wavelength of 570 nm was selected to measure an optical density value (i.e., OD value) of each well on a microplate reader, and the cellular survival rate was calculated in accordance with the following formula: cellular survival rate=OD value of an experimental group/OD value of a blank group×100%.

COCCOCCOCCOCCOCCOCCOCCC(=O)OCCOCCNc1c2c3c4c(c(OC)c(=O)c5c(O)cc(OC)c(c6c(OC)cc(NCCOCCOC(=O)CCOCCOCCOCCOCCOCCOCCOC)c(c1=O)c63)c54)CC(C)=C2 [HC-1c-PEG6]
Hela cells killed (Hela cells [1]): more than 90% | singlet oxygen yield [2]: 34% | amount dissolved by each milliliter of normal saline [3]: more than 20 mg | maximum absorption wavelength [4]: 628 nm | molar extinction coefficient [4]: 33,500 M^−1cm^−1 | pH stability, change in absorption spectrum [5]: good pH stability; also recorded: no obvious change | singlet oxygen in the cell (DCFH-DA green fluorescence) (singlet oxygen in a cell): green fluorescence intensity is gradually increased | cytotoxicity when not exposed to light (Hela cells [6]): almost no cytotoxicity
